Assay results published in patent US11420970B1 (NOVARTIS AG, priority 2019, dated 2022).
Where two headings read alike, the source gives them in different places.

Tests used:
[1] = tested on: cellular H3K36me2 level in multiple myeloma cell line KMS11 (t(4;14)+); assay: H3K36me2 cellular ELISA assay in KMS11-Par line; assay type: cell-based; settings: Homo sapiens, read-out: H3K36me2 ELISA in KMS11-Par
How it was run: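 After 72 h compound exposure, HCl-extracted histones from KMS11 (t(4;14)+) cells were probed by ELISA for H3K36me2 against total H3 with a chemiluminescence read-out. Cells were plated at 1,250/well in Opti-MEM plus B-27 and N2 the day before. A parallel CellTiter-Glo plate tracked viability.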

[2] = tested on: cellular H3K36me2 level in multiple myeloma cell line KMS11 (t(4;14)+); assay: H3K36me2 cellular FRET assay in KMS11-Par line; assay type: cell-based; settings: Homo sapiens
Experimental: H3K36Me2 Cellular FRET Assay in KMS11-Par Line
Fluorescence Resonance Energy Transfer (FRET) assay was used to test the ability of candidate compound to reduce cellular H3K36me2 level in multiple myeloma cell line KMS11 (t(4;14)+) (Horizon Discovery Ltd.).
Cells were treated with tested compounds at the desired concentration for 48 hours. […] Histone extract was incubated with Eu labeled anti-H3K36me2 antibody (abcam #ab ab9049) and d2 labeled anti-H3 antibody (abcam #ab1791) for 1 hour at room temperature. A Eu labeled anti-H3 antibody (CISBIO #64CUS000) was used for loading control. The abundancy of H3K36me2 or total H3 was measured by fluorescence signal on Perkin Elmer Envison machine.

NSD2 [1-1365] = NSD2 [1-1365] (Homo sapiens (Human), UniProt O96028); assay: LC-MS/MS-based NSD2 enzymatic assay (SAH production); assay type: biochemical; settings: read-out: NSD2 IC50
NSD2 [1-1365], sequence (O96028 whole entry): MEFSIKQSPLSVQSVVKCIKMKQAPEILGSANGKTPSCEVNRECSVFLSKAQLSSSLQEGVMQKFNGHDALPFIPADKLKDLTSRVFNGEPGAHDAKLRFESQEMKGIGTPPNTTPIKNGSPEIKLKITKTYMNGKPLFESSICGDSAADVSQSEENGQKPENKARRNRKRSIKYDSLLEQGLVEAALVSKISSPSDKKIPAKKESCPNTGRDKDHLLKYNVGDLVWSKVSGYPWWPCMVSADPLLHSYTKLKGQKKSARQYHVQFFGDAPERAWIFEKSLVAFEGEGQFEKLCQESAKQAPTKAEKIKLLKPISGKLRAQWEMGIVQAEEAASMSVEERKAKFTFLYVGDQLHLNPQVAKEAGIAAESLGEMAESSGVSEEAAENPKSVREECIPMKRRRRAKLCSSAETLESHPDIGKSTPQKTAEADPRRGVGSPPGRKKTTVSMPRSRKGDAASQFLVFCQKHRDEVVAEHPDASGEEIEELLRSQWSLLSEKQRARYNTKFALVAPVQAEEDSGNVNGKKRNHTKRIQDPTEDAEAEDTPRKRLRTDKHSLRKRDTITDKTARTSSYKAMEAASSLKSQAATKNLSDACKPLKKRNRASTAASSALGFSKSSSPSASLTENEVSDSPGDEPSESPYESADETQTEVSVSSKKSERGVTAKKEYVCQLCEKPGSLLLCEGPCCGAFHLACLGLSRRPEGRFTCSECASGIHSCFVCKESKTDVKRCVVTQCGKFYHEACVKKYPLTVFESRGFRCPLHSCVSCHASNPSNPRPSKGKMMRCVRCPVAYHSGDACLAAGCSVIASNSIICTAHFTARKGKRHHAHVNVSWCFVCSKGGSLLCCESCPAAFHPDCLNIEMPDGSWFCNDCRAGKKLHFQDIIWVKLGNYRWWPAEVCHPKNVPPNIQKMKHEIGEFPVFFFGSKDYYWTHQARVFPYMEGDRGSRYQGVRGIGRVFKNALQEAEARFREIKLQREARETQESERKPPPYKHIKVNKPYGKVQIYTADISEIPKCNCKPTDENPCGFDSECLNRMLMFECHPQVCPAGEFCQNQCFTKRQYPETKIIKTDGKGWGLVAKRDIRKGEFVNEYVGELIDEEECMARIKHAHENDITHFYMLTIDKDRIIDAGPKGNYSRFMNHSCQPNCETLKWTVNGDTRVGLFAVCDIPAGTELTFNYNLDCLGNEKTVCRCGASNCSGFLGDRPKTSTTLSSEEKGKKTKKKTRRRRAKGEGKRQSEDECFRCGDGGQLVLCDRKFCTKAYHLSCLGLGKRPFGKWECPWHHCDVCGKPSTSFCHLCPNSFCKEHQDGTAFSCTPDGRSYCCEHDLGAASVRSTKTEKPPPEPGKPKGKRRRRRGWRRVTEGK
How it was run: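 SAH formed was measured by LC-MS/MS using d4-SAH as internal standard and an SAH calibration curve. Compounds were preincubated 20 min with NSD2 [1-1365] and SAM; mouse-liver nucleosome then started a 90 min room-temperature reaction (8 nM enzyme, 1 μM SAM, 400 nM nucleosome final, pH 8.0), stopped with TFA.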

[3] = tested on: cellular H3K36me2 level in thyroid carcinoma cell line CGTH-W-1 (NSD2 E1099K); assay: H3K36me2 cellular ELISA assay in CGTH-W-1 line; assay type: cell-based; settings: Homo sapiens, CGTH-W-1, 72 h, read-out: H3K36me2 ELISA in CGTH-W-1
How it was run: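 After 72 h compound treatment of NSD2 E1099K-mutant CGTH-W-1 cells, H3K36me2 and total H3 were quantified by ELISA with chemiluminescent read-out. A parallel-seeded plate gave cell viability by CellTiter-Glo.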

[4] = NSD2 biochemical activity, class symbols
[5] = KMS-11, KMS11-Par line, cellular H3K36me2 level, FRET, read-out: H3K36me2 FRET in KMS11-Par
[6] = KMS-11, KMS11-Par line (t(4;14)+), 72 hours treatment, ELISA
[7] = KMS-11, KMS11-Par line, FRET, read-out: H3K36me2 FRET in KMS11-Par

Which results are given for COc1ccc(-c2cc(Cn3cnc4c(N)ncnc43)c(N3CCC[C@@H](N)C3)cn2)cc1F [Example 1, (R)-9-((5-(3-aminopiperidin-1-yl)-2-(3-fluoro-4-methoxyphenyl)pyridin-4-yl)methyl)-9H-purin-6-amine]?
IC50 ([1]; KMS-11, 72 h): 4090 nM; IC50 ([2]; KMS-11, read-out: H3K36me2 FRET in KMS11-Par): 3030 nM; IC50 (NSD2 [1-1365]; [4]): 10 to 1000 nM; IC50 [3]: 750 nM

With COc1ccc(-c2cc(Cn3cnc4c(N)ncnc43)c(N3CC[C@@H](F)[C@@H](N)C3)cn2)cc1F [Example 5, 9-((5-((3S,4R)-3-amino-4-fluoropiperidin-1-yl)-2-(3-fluoro-4-methoxyphenyl)pyridin-4-yl)methyl)-9H-purin-6-amine] as the compound, how does the IC50 [2, 5] read?
The IC50 was 6460 nM.

What about the IC50 (NSD2 [1-1365]; [4]) of the same compound?
Its IC50 is 10 to 1000 nM.

What about the IC50 [3] of the same compound?
The IC50 was 1770 nM.

What does the source list for COC[C@@]1(N)CCCN(c2cnc(-c3cc(Cl)ccc3F)cc2Cn2cnc3c(N)ncnc32)C1 [Example 26, (R)-9-((5-(3-amino-3-(methoxymethyl)piperidin-1-yl)-2-(5-chloro-2-fluorophenyl)pyridin-4-yl)methyl)-9H-purin-6-amine]?
IC50 [1, 6]: 375 nM; IC50 [2, 5]: 248 nM; IC50 (NSD2 [1-1365]; [4]): 1 to 10 nM

For Nc1ncnc2c1ncn2Cc1cc(-c2ccc(F)c(F)c2)ncc1N1CCC[C@](N)(COC2CCC2)C1 [Example 30, (R)-9-((5-(3-amino-3-(cyclobutoxymethyl)piperidin-1-yl)-2-(3,4-difluorophenyl)pyridin-4-yl)methyl)-9H-purin-6-amine], which IC50 [1, 6] is on record?
The IC50 was 2030 nM.

And the IC50 [2, 5]?
The IC50 was 569 nM.

What about the IC50 (NSD2 [1-1365]; [4]) of the same compound?
The IC50 was 1 to 10 nM.

And the IC50 [3]?
Its IC50 is 659 nM.

For COc1ccc(-c2cc(Cn3cnc4c(N)ncnc43)c(N3CCC[C@](N)(COC4CCC4)C3)cn2)cc1F [Example 32, (R)-9-((5-(3-amino-3-(cyclobutoxymethyl)piperidin-1-yl)-2-(3-fluoro-4-methoxyphenyl)pyridin-4-yl)methyl)-9H-purin-6-amine], which IC50 [1, 6] is on record?
Its IC50 is 728 nM.

And the IC50 [2, 5]?
Its IC50 is 270 nM.

And the IC50 (NSD2 [1-1365]; [4])?
Its IC50 is 1 to 10 nM.

And the IC50 [3]?
Its IC50 is 196 nM.

What does the source list for CC(C)OC[C@@]1(N)CCCN(c2cnc(-c3ccc(F)cc3)cc2Cn2cnc3c(N)ncnc32)C1 [Example 37, (R)-9-((5-(3-amino-3-(isopropoxymethyl)piperidin-1-yl)-2-(4-fluorophenyl)pyridin-4-yl)methyl)-9H-purin-6-amine]?
IC50 [1, 6]: 1400 nM; IC50 [2, 5]: 614 nM; IC50 (NSD2 [1-1365]; [4]): 10 to 1000 nM

For Nc1ncnc2c1ncn2Cc1cc(-c2ccc(F)c(F)c2)ncc1N1CCC[C@](N)(COC(F)F)C1 [Example 41, (R)-9-((5-(3-amino-3-((difluoromethoxy)methyl)piperidin-1-yl)-2-(3,4-difluorophenyl)pyridin-4-yl)methyl)-9H-purin-6-amine], which IC50 [1, 6] is on record?
Its IC50 is 2310 nM.

What about the IC50 [2, 5] of the same compound?
The IC50 was 1090 nM.

And the IC50 (NSD2 [1-1365]; [4])?
Its IC50 is 10 to 1000 nM.

Which IC50 [1, 6] does the source give for COc1ccc(-c2cc(Cn3cnc4c(N)ncnc43)c(N3CCC[C@](N)(COC(F)F)C3)cn2)cc1F [Example 42, (R)-9-((5-(3-amino-3-((difluoromethoxy)methyl)piperidin-1-yl)-2-(3-fluoro-4-methoxyphenyl)pyridin-4-yl)methyl)-9H-purin-6-amine] here?
The IC50 was 10700 nM.

What about the IC50 [2, 5] of the same compound?
The IC50 was 1230 nM.

What about the IC50 (NSD2 [1-1365]; [4]) of the same compound?
Its IC50 is 10 to 1000 nM.

What about the IC50 [3] of the same compound?
Its IC50 is 789 nM.

Which IC50 [1, 6] does the source give for Nc1ncnc2c1ncn2Cc1cc(-c2ccc(F)c(F)c2)ncc1N1CCC[C@](N)(CC(F)F)C1 [Example 47, (S)-9-((5-(3-amino-3-(2,2-difluoroethyl)piperidin-1-yl)-2-(3,4-difluorophenyl)pyridin-4-yl)methyl)-9H-purin-6-amine] here?
Its IC50 is 1540 nM.

What about the IC50 [2, 5] of the same compound?
The IC50 was 1180 nM.

What about the IC50 (NSD2 [1-1365]; [4]) of the same compound?
The IC50 was 10 to 1000 nM.

What about the IC50 [3] of the same compound?
Its IC50 is 377 nM.

Which IC50 [1, 6] does the source give for Nc1ncnc2c1ncn2Cc1cc(-c2ccc(F)c(F)c2)ncc1N1CCC[C@](N)(Cc2ccccn2)C1 [Example 54, (S)-9-((5-(3-amino-3-(pyridin-2-ylmethyl)piperidin-1-yl)-2-(3,4-difluorophenyl)pyridin-4-yl)methyl)-9H-purin-6-amine] here?
The IC50 was 780 nM.

And the IC50 [2, 5]?
The IC50 was 450 nM.

What about the IC50 (NSD2 [1-1365]; [4]) of the same compound?
The IC50 was 1 to 10 nM.

Which results are given for COc1ccc(-c2cc(Cn3cnc4c(N)ncnc43)c(N3CCC[C@](N)(CC(F)F)C3)cn2)cc1F [Example 61, (S)-9-((5-(3-amino-3-(2,2-difluoroethyl)piperidin-1-yl)-2-(3-fluoro-4-methoxyphenyl)pyridin-4-yl)methyl)-9H-purin-6-amine]?
IC50 [2, 5]: 1420 nM; IC50 (NSD2 [1-1365]; [4]): 10 to 1000 nM; IC50 [3]: 643 nM

Which IC50 [2, 5] does the source give for CNC(=O)CC1(N)CCCN(c2cnc(-c3ccc(F)c(F)c3)cc2Cn2cnc3c(N)nccc32)C1 (stereo not drawn) [Example 72, 2-(3-amino-1-(4-((4-amino-1H-imidazo[4,5-c]pyridin-1-yl)methyl)-6-(3,4-difluorophenyl)pyridin-3-yl)piperidin-3-yl)-N-methylacetamide] here?
Its IC50 is 250000 nM.

What about the IC50 (NSD2 [1-1365]; [4]) of the same compound?
Its IC50 is 10 to 1000 nM.

For COC(=O)[C@@]1(N)CCCN(c2cnc(-c3cccc(F)c3)cc2Cn2cnc3c(N)ncnc32)C1 [Example 79, methyl (R)-3-amino-1-(4-((6-amino-9H-purin-9-yl)methyl)-6-(3-fluorophenyl)pyridin-3-yl)piperidine-3-carboxylate], which IC50 [2, 5] is on record?
The IC50 was 473 nM.

What about the IC50 (NSD2 [1-1365]; [4]) of the same compound?
The IC50 was 1 to 10 nM.

COc1ccc(-c2cc(Cn3cnc4c(N)ncnc43)c(N3CCC[C@](N)(C(=O)N(C)C)C3)cn2)cc1F [Example 80, (R)-3-amino-1-(4-((6-amino-9H-purin-9-yl)methyl)-6-(3-fluoro-4-methoxyphenyl)pyridin-3-yl)-N,N-dimethylpiperidine-3-carboxamide] was tested. Which IC50 [2, 5] did it give?
Its IC50 is 4950 nM.

And the IC50 (NSD2 [1-1365]; [4])?
Its IC50 is 1 to 10 nM.

How did the IC50 [2, 5] turn out when COc1ccc(-c2cc(Cn3cnc4c(N)ncnc43)c(N3CCC[C@](N)(C(=O)OC(C)C)C3)cn2)cc1F [Example 81, isopropyl (R)-3-amino-1-(4-((6-amino-9H-purin-9-yl)methyl)-6-(3-fluoro-4-methoxyphenyl)pyridin-3-yl)piperidine-3-carboxylate] was run?
The IC50 was 115 nM.

And the IC50 (NSD2 [1-1365]; [4])?
Its IC50 is 1 to 10 nM.

How did the IC50 [2, 5] turn out when COc1ccc(-c2cc(Cn3cnc4c(N)ncnc43)c(N3CCC[C@](N)(C(=O)OC(C)(C)C)C3)cn2)cc1F [Example 83, tert-butyl (R)-3-amino-1-(4-((6-amino-9H-purin-9-yl)methyl)-6-(3-fluoro-4-methoxyphenyl)pyridin-3-yl)piperidine-3-carboxylate] was run?
Its IC50 is 956 nM.

And the IC50 (NSD2 [1-1365]; [4])?
The IC50 was 10 to 1000 nM.

For CO/N=C(\C)C1(N)CCCN(c2cnc(-c3ccc(OC)c(F)c3)cc2Cn2cnc3c(N)ncnc32)C1 (stereo not drawn) [Example 96, (E)-1-(3-amino-1-(4-((6-amino-9H-purin-9-yl)methyl)-6-(3-fluoro-4-methoxyphenyl)pyridin-3-yl)piperidin-3-yl)ethan-1-one O-methyl oxime], which IC50 [2, 5] is on record?
Its IC50 is 2400 nM.

And the IC50 (NSD2 [1-1365]; [4])?
The IC50 was 10 to 1000 nM.

Which results are given for COc1ccc(-c2cc(Cn3cnc4c(N)ncnc43)c(N3CCCC(N)(C(C)F)C3)cn2)cc1F (stereo not drawn) [Example 295, 9-((5-(3-amino-3-(1-fluoroethyl)piperidin-1-yl)-2-(3-fluoro-4-methoxyphenyl)pyridin-4-yl)methyl)-9H-purin-6-amine]?
IC50 ([1]; KMS-11, KMS11-Par line, ELISA, 72 hours): 1860 nM; IC50 [2, 7]: 2330 nM; IC50 (NSD2 [1-1365]): 10 to 1000 nM

Which IC50 [2, 7] does the source give for CSCC1(N)CCCN(c2cnc(-c3ccc(F)c(F)c3)cc2Cn2cnc3c(N)ncnc32)C1 (stereo not drawn) [Example 297, 9-((5-(3-amino-3-((methylthio)methyl)piperidin-1-yl)-2-(3,4-difluorophenyl)pyridin-4-yl)methyl)-9H-purin-6-amine] here?
The IC50 was 2350 nM.

What about the IC50 (NSD2 [1-1365]) of the same compound?
The IC50 was 10 to 1000 nM.

With COc1ccc(-c2cc(Cn3cnc4c(N)ncnc43)c(N3CCC[C@](N)(CC(F)(F)F)C3)cn2)cc1F [Example 303, (S)-9-((5-(3-amino-3-(2,2,2-trifluoroethyl)piperidin-1-yl)-2-(3-fluoro-4-methoxyphenyl)pyridin-4-yl)methyl)-9H-purin-6-amine] as the compound, how does the IC50 [2, 7] read?
The IC50 was 5370 nM.

And the IC50 (NSD2 [1-1365])?
The IC50 was 10 to 1000 nM.
